The record followed here is ChEMBL document CHEMBL1201862, “PubChem BioAssay data set” (2004).

Test systems include CAKI-1; HCC 2998; MOLT-4; UACC-257; IGROV-1; NCI-H23; OVCAR-5; EKVX; MDA-MB-231; NCI/ADR-RES; SK-MEL-2; SNB-19; M14; K562; CCRF-CEM; Malme-3M; HCT-15; HT-29; RXF 393; LOX IMVI.
What all share (assay): NCI-60 cell line screen, 48 h

SMILES strings stand for the structures.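 Cells were grown in 96-well plates and exposed to each compound for 48 hours at five concentrations; endpoints were interpolated linearly between bracketing concentrations, or set to the highest concentration if not reached. Abbreviation: GI50, concentration required for 50% inhibition of growth.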 The source made the active and inactive calls. Rule as the data show it: active = GI50 up to about 1.1 µM and inactive = higher. Where a SMILES comes first, the peptide text is derived from it. Bridges are numbered along the chain shown (N, C = ends). [ ]: non-standard residue; d: D form. The star is where a group is joined. ξ: configuration not given here. ξNMePhe(4-NMe2) = CNC(Cc1ccc(N(C)C)cc1)C(=O)O; Picolinoyl(3-OH) = O=C(c1ncccc1O)*; ξPip(4-oxo) = O=C1CCNC(C(=O)O)C1; Phg = N[CH](C(=O)O)c1ccccc1; Abu = CC[CH](N)C(=O)O

In the case of `O/N=C1/CCCCC1NO` (stereo not given), the GI50 with CAKI-1, in the assay with HCC 2998, in the assay with MOLT-4, in the assay with UACC-257, in the assay on IGROV-1 and with NCI-H23 was > 100 µM (inactive) in each case. The GI50 in the assay on OVCAR-5, in the assay with EKVX, in the assay on MDA-MB-231, in the assay with NCI/ADR-RES, with SK-MEL-2 and in the assay on SNB-19 was > 100 µM (inactive) each time. Moreover, the GI50 was > 100 µM (inactive) in the assay on M14; > 100 µM (inactive) with K562; > 100 µM (inactive) with CCRF-CEM; > 100 µM (inactive) with Malme-3M; above 100 µM in the assay with HCT-15; > 100 µM (inactive) in the assay on HT-29. Further, the GI50 with RXF 393 and in the assay with LOX IMVI was > 100 µM (inactive) throughout.
As to `c1ccc2c(c1)c1c3c(c4c(n32)=NCCN4)CCC1`, the GI50 in the assay with CAKI-1 was 40.8 µM (inactive); with HCC 2998, 33.6 µM (inactive); with MOLT-4, 21.3 µM (inactive); in the assay on UACC-257, 38.1 µM (inactive); in the assay on IGROV-1 it was 27.4 µM (inactive); in the assay on NCI-H23, 31.6 µM (inactive). Moreover, the GI50 is 36.3 µM (inactive) in the assay with OVCAR-5; 20.9 µM (inactive) with EKVX; 24.2 µM (inactive) in the assay on MDA-MB-231; 27.9 µM (inactive) in the assay on NCI/ADR-RES; 23.3 µM (inactive) in the assay on SK-MEL-2; 89.9 µM (inactive) with SNB-19. In addition, the GI50 with M14 is 44.3 µM (inactive); in the assay with K562 it was 27.6 µM (inactive); in the assay with CCRF-CEM it was 53.1 µM (inactive); in the assay with Malme-3M, 31.6 µM (inactive); in the assay on HCT-15, 15.2 µM; with HT-29 it was 20.8 µM (inactive). In addition, the GI50 is 17.9 µM (inactive) in the assay with RXF 393 and 21.1 µM (inactive) in the assay with LOX IMVI.
Consider `Cc1cc(O)nc(/N=C(\N)Nc2ccc(Cl)cc2)n1`, for which the GI50 in the assay on CAKI-1, in the assay with HCC 2998, in the assay with MOLT-4, in the assay on UACC-257, in the assay on IGROV-1 and in the assay on NCI-H23 was > 100 µM (inactive) throughout. For the same compound, the GI50 in the assay with OVCAR-5, in the assay on EKVX, in the assay on MDA-MB-231, in the assay on NCI/ADR-RES, in the assay with SK-MEL-2 and in the assay on SNB-19 was > 100 µM (inactive) in each case. Further, the GI50 was > 100 µM (inactive) in the assay with M14; > 100 µM (inactive) in the assay with K562; > 100 µM (inactive) with CCRF-CEM; > 100 µM (inactive) with Malme-3M; above 100 µM with HCT-15; > 100 µM (inactive) with HT-29. For the same compound, the GI50 in the assay on RXF 393 and with LOX IMVI was > 100 µM (inactive) each time.
In the case of `c1ccc2c(c1)NC1(N3CCCCC3)CCCCC21` (stereo not given), the GI50 was 55.6 µM (inactive) in the assay with CAKI-1; 76.4 µM (inactive) in the assay on HCC 2998; 25.9 µM (inactive) in the assay with MOLT-4; 47.3 µM (inactive) with UACC-257; 28.2 µM (inactive) in the assay with IGROV-1; 50.5 µM (inactive) in the assay with NCI-H23. Further, the GI50 with OVCAR-5 was 35.2 µM (inactive); with EKVX, 25.5 µM (inactive); with MDA-MB-231, 34.2 µM (inactive); in the assay on NCI/ADR-RES, 91.8 µM (inactive); in the assay on SK-MEL-2, 49.3 µM (inactive); in the assay with SNB-19, 51.5 µM (inactive). For the same compound, the GI50 is 55.3 µM (inactive) in the assay with M14; 38.8 µM (inactive) in the assay with K562; 32.4 µM (inactive) with CCRF-CEM; 58.2 µM (inactive) in the assay on Malme-3M; 44 µM in the assay with HCT-15; 39.4 µM (inactive) in the assay on HT-29. In addition, the GI50 in the assay with RXF 393 is 9.16 µM (inactive); in the assay with LOX IMVI it was 38.4 µM (inactive).
As to `CC1=C/C(O)CC(=O)Cc2nc(co2)C(=O)N2CCC=C2C(=O)OC(C(C)C)C(C)/C=C/C(=O)NC\C=C\1.CCC1NC(=O)C(NC(=O)c2ncccc2O)C(C)OC(=O)C(c2ccccc2)NC(=O)C2CC(=O)CCN2C(=O)C(Cc2ccc(N(C)C)cc2)N(C)C(=O)C2CCCN2C1=O` (stereo not given) ({Picolinoyl(3-OH)}-T[Abu]P[ξNMePhe(4-NMe2)][ξPip(4-oxo)][Phg]; ester 1-C; configuration not given here), the GI50 with CAKI-1 is 28.2 µM (inactive); in the assay on HCC 2998, 11.6 µM (inactive); with MOLT-4, 3.64 µM (inactive); in the assay with UACC-257, 6.08 µM (inactive); in the assay with IGROV-1, 11.4 µM (inactive); in the assay with NCI-H23, 7.05 µM (inactive). Besides, the GI50 is 31.5 µM (inactive) in the assay on OVCAR-5; 13.6 µM (inactive) in the assay on EKVX; 7.55 µM (inactive) with MDA-MB-231; 25.3 µM (inactive) in the assay on NCI/ADR-RES; 7.21 µM (inactive) in the assay on SK-MEL-2; 13.1 µM (inactive) with SNB-19. Further, the GI50 was 15 µM (inactive) with M14; 4.72 µM (inactive) in the assay on K562; 1.9 µM (inactive) with CCRF-CEM; 12.8 µM (inactive) in the assay with Malme-3M; 9.51 µM with HCT-15; 6.41 µM (inactive) in the assay on HT-29. The GI50 with RXF 393 is 11.4 µM (inactive); in the assay on LOX IMVI, 3.87 µM (inactive).
On to `COc1ccc(NC2C(=O)C3(C)CCC2C3(C)C)cc1` (stereo not given), for which the GI50 in the assay on CAKI-1 is > 100 µM (inactive); in the assay on HCC 2998 it was > 100 µM (inactive); in the assay with MOLT-4, 67.8 µM (inactive); with UACC-257, 49 µM (inactive); in the assay with IGROV-1, > 100 µM (inactive); with NCI-H23, > 100 µM (inactive). Also, the GI50 in the assay with OVCAR-5, in the assay with EKVX, in the assay on MDA-MB-231, in the assay on NCI/ADR-RES, with SK-MEL-2 and with SNB-19 was > 100 µM (inactive) in each case. Also, the GI50 was > 100 µM (inactive) in the assay with M14; 63.7 µM (inactive) in the assay with K562; > 100 µM (inactive) in the assay on CCRF-CEM; > 100 µM (inactive) with Malme-3M; above 100 µM with HCT-15; 40.4 µM (inactive) with HT-29. Besides, the GI50 with RXF 393 and in the assay with LOX IMVI was > 100 µM (inactive) in each case.
Turning to `O=S(=O)(O)c1cc(O)c2c(/N=C\c3ccccc3O)cc(S(=O)(=O)O)cc2c1`, the GI50 was > 100 µM (inactive) in the assay with CAKI-1; > 100 µM (inactive) in the assay on HCC 2998; 9.57 µM (inactive) with MOLT-4; > 100 µM (inactive) in the assay on UACC-257; > 100 µM (inactive) with IGROV-1; > 100 µM (inactive) in the assay on NCI-H23. Also, the GI50 in the assay on OVCAR-5, in the assay on EKVX, in the assay on MDA-MB-231, in the assay with NCI/ADR-RES, in the assay on SK-MEL-2 and in the assay with SNB-19 was > 100 µM (inactive) each time. Further, the GI50 was > 100 µM (inactive) in the assay on M14; 86.5 µM (inactive) in the assay with K562; > 100 µM (inactive) with CCRF-CEM; > 100 µM (inactive) in the assay with Malme-3M; above 100 µM in the assay on HCT-15; > 100 µM (inactive) in the assay with HT-29. The GI50 with RXF 393 and with LOX IMVI was > 100 µM (inactive) throughout.
Turning to `O=S(=O)(O)c1ccc2c(/N=N\c3cccc4ccccc34)c(O)c(S(=O)(=O)O)cc2c1`, the GI50 in the assay on CAKI-1, in the assay with HCC 2998, with MOLT-4, in the assay with UACC-257, with IGROV-1 and with NCI-H23 was > 100 µM (inactive) each time. The GI50 with OVCAR-5, in the assay with EKVX, in the assay on MDA-MB-231, in the assay on NCI/ADR-RES, in the assay on SK-MEL-2 and in the assay on SNB-19 was > 100 µM (inactive) throughout. The GI50 in the assay with M14 was > 100 µM (inactive); in the assay with K562 it was > 100 µM (inactive); in the assay on CCRF-CEM, > 100 µM (inactive); with Malme-3M it was > 61.7 µM (inactive); in the assay with HCT-15, above 100 µM; in the assay on HT-29 it was > 100 µM (inactive). Besides, the GI50 in the assay with RXF 393 and in the assay on LOX IMVI was > 100 µM (inactive) throughout.
As for `COc1ccc2c(-c3cc4ccccc4o3)cc(=O)oc2c1`, the GI50 with CAKI-1 was 40.6 µM (inactive); with HCC 2998, > 55.1 µM (inactive); in the assay on MOLT-4, > 100 µM (inactive); in the assay with UACC-257, 54.8 µM (inactive); in the assay on IGROV-1, 41.3 µM (inactive); in the assay with NCI-H23 it was 52.1 µM (inactive). Moreover, the GI50 in the assay with OVCAR-5 is > 42.2 µM (inactive); in the assay with EKVX it was 48.6 µM (inactive); in the assay with MDA-MB-231, 47.8 µM (inactive); in the assay with NCI/ADR-RES, 24.7 µM (inactive); in the assay on SK-MEL-2, 66.5 µM (inactive); in the assay with SNB-19, 26.1 µM (inactive). The GI50 with M14 is 75.7 µM (inactive); with K562 it was > 100 µM (inactive); in the assay with CCRF-CEM it was > 100 µM (inactive); with Malme-3M, 71.1 µM (inactive); in the assay with HCT-15 it was above 100 µM; with HT-29, > 78.2 µM (inactive). Moreover, the figures for the GI50 in the assay with RXF 393 and in the assay with LOX IMVI were 18 µM (inactive) and 60.7 µM (inactive), respectively.
`COP(=N[Si](C)(C)C)(OC)OC`: the GI50 with CAKI-1, in the assay with HCC 2998, with MOLT-4, with UACC-257, in the assay on IGROV-1 and in the assay on NCI-H23 was > 100 µM (inactive) each time. Further, the GI50 in the assay with OVCAR-5, with EKVX, with MDA-MB-231, with NCI/ADR-RES, in the assay with SK-MEL-2 and with SNB-19 was > 100 µM (inactive) in each case. The GI50 in the assay on M14 was > 100 µM (inactive); in the assay on K562, > 100 µM (inactive); in the assay on CCRF-CEM it was > 100 µM (inactive); in the assay on Malme-3M, > 100 µM (inactive); in the assay on HCT-15, above 100 µM; with HT-29, > 100 µM (inactive). The GI50 in the assay with RXF 393 and with LOX IMVI was > 100 µM (inactive) throughout.
